Earlier results in US20040167185A1, “Methods of treating conditions associated with an Edg-3 receptor” (priority 2003, published 2004).
Where a name gives a salt, the structure may show the parent alone. One block for each compound: values may come before it.

Columns and labels:
[1] = target: Adrenergic β; settings: Kd of the radioligand; Wistar rat brain; historical value
[2] = target: Adrenergic α1, non-selective
[3] = target: Serotonin 5-HT1, non-selective; settings: Kd of the radioligand; Wistar rat cerebral cortex; historical value
[4] = target: T1, Angiotensin AT2 (Homo sapiens, UniProt P50052); settings: Kd of the radioligand; Human recombinant Hela cells; historical value
T1 construct: expressed in transfected cells; host or cells: Hela cells
T1 sequence (P50052 1-363): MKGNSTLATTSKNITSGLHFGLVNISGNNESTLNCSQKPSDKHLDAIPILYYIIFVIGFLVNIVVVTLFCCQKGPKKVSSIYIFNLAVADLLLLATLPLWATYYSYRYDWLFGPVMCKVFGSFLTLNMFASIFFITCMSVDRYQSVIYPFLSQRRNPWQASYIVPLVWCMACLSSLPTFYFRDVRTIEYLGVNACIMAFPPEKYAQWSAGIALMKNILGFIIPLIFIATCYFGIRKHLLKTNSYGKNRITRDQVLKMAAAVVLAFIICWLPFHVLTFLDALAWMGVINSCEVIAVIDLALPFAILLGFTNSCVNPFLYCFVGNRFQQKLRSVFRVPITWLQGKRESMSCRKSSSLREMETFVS

- Kd [1]: 500 pM
Compound: CCCc1ccccc1OCC(O)CNC(C)C (stereo not shown) [^3H Dihydroaplenolol, Dihydroaplenolol]

Compound: COc1cc2nc(N3CCN(C(=O)c4ccco4)CC3)nc(N)c2cc1OC [^3H Prazosin, Prazosin]
- Kd [2]: 290 pM

Compound: NCCc1c[nH]c2ccc(O)cc12 [^3H Serotonin (5-HT) Trifluoroacetate, Serotonin (5-HT) Trifluoroacetate]
- Kd [3]: 610 pM

- Kd [4]: 12 pM
Compound: CGP-42112A [^125I CGP-42112A]
